The compounds below were run against Reverse transcriptase protein (Human immunodeficiency virus 1, UniProt Q9WJQ1) (assay: In vitro Anti-HIV RT Assay).
Description: The HIV-1 RTwt inhibition assay was implemented using the template/primer hybrid poly(A)9oligo(dT)15, digoxigenin- and biotin-labeled nucleotides, an antibody to digoxigenin which is conjugated to peroxidase (anti-DIG-POD), and the peroxidase substrate ABTS for quantifying the RT polymerase activity. The incorporation quantities of the digoxigenin- and biotin-labeled dUTP into DNA represented the activity of HIV-1 RT. The IC50 value corresponds to the concentration of the tested compound required to inhibit the incorporation of the labeled dUTP by 50%. The procedure for RT assay was performed as described in the kit (Roche) protocol
In the case of `Cc1cc(C#N)cc(C)c1Oc1nc(Nc2ccc(C#N)cc2)nc(N)c1Br`, the IC50 is reported as 89 nM. `Cc1cc(C)cc(C(=O)c2cccnc2Oc2ccc(C#N)cc2)c1` [4-(3-(3,5-Dimethylbenzoyl)pyridin-2-yloxy)benzonitrile (6a1)] gave an IC50 of 150000 nM. `Cc1ccnc2c1NC(=O)c1cccnc1N2C1CC1` [BI-RG-587] was tested, and the IC50 was 580 nM.
